Test: In-vivo release assay in Beagle dogs with a VLMW polymer not end-capped
Settings: 10% BIM21003 in PLGA 50/50 ended by carboxylic acid group (J001/3000013), intramuscular, about 3.6 mg per animal, RIA
Procedure: An in-vivo assay was performed with a semi-solid formulation of 10% BIM21003 using a PLGA 50/50 ended by a carboxylic acid group (J001/3000013 batch, see table 1). The preparation of the formulation was achieved by a push-pull kneading process with 2 syringes at about 50° C. as described in example 6. The mixture (bulk product) was conditioned in a 0.3 ml single-dose syringes coupled with 20×1.4 mm needles thereafter packed in individual aluminium sealed bags, and sterilized by gamma-irradiation at 25 kGy in dry ice.
Six male Beagle dogs were administered intramuscularly with single-dose syringes previously heated at 50° C. for 3 min in order to improve its fluidity and facilitate its injection. Syringes were weighted before and after administration, and the injected dose of BIM21003 was calculated to be about 3.6 mg per animal.
Four-ml blood samples were obtained from cephalic veins at specified time intervals post-administration. The blood samples were placed in tubes containing an anticoagulant (15% EDTA.K3 aqueous solution) and a preservative (Trasylol®). After centrifugation, plasma was removed and samples were stored below −20° C. until RIA analysis.

SMILES: CC(C)C[C@H](NC(=O)[C@@H](Cc1c[nH]c2ccccc12)NC(=O)[C@H](Cc1ccc(O)cc1)NC(=O)[C@H](CO)NC(=O)[C@H](Cc1c[nH]c2ccccc12)NC(=O)[C@H](Cc1c[nH]cn1)NC(=O)[C@@H]1CCC(=O)N1)C(=O)N[C@@H](CCCNC(=N)N)C(=O)N1CCC[C@H]1C(=O)NCC(N)=O [BIM-21003, triptorelin]
- BIM-21003 plasma levels after 3 days post-administration: below the limit of quantification
